According to the CheMixHub ionic liquid set:
Values joined by “and” are separate entries in the source; they are usually repeats but may differ in a detail not shown here. Identical values can stand only once.

Test: xn = mol fraction of the nth substance listed

Nc1ccccc1 + CCCC[n+]1ccn(C)c1.O=S(=O)([N-]S(=O)(=O)C(F)(F)F)C(F)(F)F
viscosity [mPa·s], 100 kPa
Conditions	288.15 K	293.15 K	298.15 K	303.15 K	308.15 K	313.15 K	318.15 K	323.15 K	328.15 K	333.15 K
x1 = 0.1	66.3	52.2	42.1	34.3	28.6	23.9	20.44	17.56	15.22	13.34
x1 = 0.2	55.9	44.1	35.9	29.3	24.5	20.59	17.66	15.22	13.24	11.63
x1 = 0.3029	46.5	36.8	30.1	24.7	20.77	17.48	15.05	13.02	11.36	10.01
x1 = 0.4013	38.5	30.6	25.1	20.73	17.48	14.76	12.76	11.06	9.68	8.56
x1 = 0.5024	31.1	24.8	20.42	16.98	14.38	12.17	10.57	9.19	8.08	7.16
x1 = 0.6002	24.6	19.71	16.28	13.64	11.58	9.84	8.59	7.5	6.61	5.88
x1 = 0.7	18.38	14.86	12.4	10.47	8.92	7.61	6.68	5.86	5.19	4.64
x1 = 0.8002	13.46	10.93	9.22	7.8	6.71	5.77	5.09	4.5	4	3.59
x1 = 0.9	8.74	7.19	6.1	5.2	4.5	3.9	3.46	3.08	2.76	2.48
x1 = 1	5.32	4.41	3.74	3.2	2.78	2.45	2.159	1.927	1.738	1.577

CCCC[n+]1ccn(C)c1.F[B-](F)(F)F + NC=O
101 kPa, x1 = 1
Conditions	viscosity [mPa·s]
308.15 K	58.4
318.15 K	38.7

CC(=O)[O-].C[NH+](C)C + O
298.15 K, 101 kPa
Conditions	viscosity [mPa·s]
x1 = 0.5942	2.59
x1 = 0.8068	2.64
x1 = 0.8639	2.66

O + CC[n+]1ccn(C)c1.CS(=O)(=O)[O-]
Conditions	electrical conductivity [S/m]
298.15 K, 100 kPa, x1 = 1	0.00023

100 kPa, frequency 0.003 MHz, x2 = 0
Conditions	electrical conductivity [S/m]
323.15 K	0.0005
333.15 K	0.0015

CC(=O)[O-].C[NH+]1CCCC1 + CC(=O)[O-].Cn1cc[nH+]c1
298.15 K, 100 kPa
Conditions	viscosity [mPa·s]
x2 = 0	3.78
x2 = 0.1	4.87
x2 = 0.19	5.35
x2 = 0.31	6.23
x2 = 0.4	6.46
x2 = 0.5	6.78
x2 = 0.59	6.74
x2 = 0.71	6.59
x2 = 0.8	6.47

C1COCCO1 + CC[n+]1ccn(C)c1.F[B-](F)(F)F
100 kPa, x1 = 1
Conditions	viscosity [mPa·s]
323.15 K	0.814
343.15 K	0.64

CCCCCCCCn1cc[n+](C)c1.O=S(=O)([N-]S(=O)(=O)C(F)(F)F)C(F)(F)F + O=C1CCCO1
100 kPa, frequency 0.005 MHz
Conditions	electrical conductivity [S/m]
293.15 K, x2 = 0.5048	0.325
298.15 K, x2 = 0	0.136
298.15 K, x2 = 0.6963	0.703
303.15 K, x2 = 0.9514	0.796
308.15 K, x2 = 0	0.207
313.15 K, x2 = 0.2993	0.401
318.15 K, x2 = 0	0.307
318.15 K, x2 = 0.0997	0.342
318.15 K, x2 = 0.8999	1.5
323.15 K, x2 = 0.2993	0.534
323.15 K, x2 = 0.9514	1.03

CCCC[n+]1ccn(C)c1.F[B-](F)(F)F + CN1CCCC1=O
viscosity, 101 kPa
Conditions	298.15 K	303.15 K	308.15 K	313.15 K	323.15 K
x1 = 0.0115	2.02 mPa·s	1.88 mPa·s	1.52 mPa·s	1.44 mPa·s	–
x2 = 0	101 mPa·s	81 mPa·s and 84.2 mPa·s	61.5 mPa·s	51.5 mPa·s	35.5 mPa·s
x2 = 0.043	86 mPa·s	73.7 mPa·s	58.1 mPa·s	–	–
x2 = 0.0879	76.3 mPa·s	63.5 mPa·s	51.2 mPa·s	43.1 mPa·s	–
x2 = 0.0999	–	63.2 mPa·s	–	–	–
x2 = 0.2001	–	47.1 mPa·s	–	–	–
x2 = 0.2126	56.9 mPa·s	46.1 mPa·s	36.1 mPa·s	32.5 mPa·s	–
x2 = 0.3028	–	34.7 mPa·s	–	–	–
x2 = 0.388	35.2 mPa·s	25.2 mPa·s	16.5 mPa·s	14.6 mPa·s	–
x2 = 0.4	–	24.58 mPa·s	–	–	–
x2 = 0.5343	21.7 mPa·s	14.8 mPa·s	9.2 mPa·s	6.53 mPa·s	–
x2 = 0.6577	13.1 mPa·s	9.5 mPa·s	6.81 mPa·s	5.38 mPa·s	–
x2 = 0.7001	–	–	–	–	4.6 mPa·s
x2 = 0.7221	9.1 mPa·s	7.8 mPa·s	5.61 mPa·s	5.01 mPa·s	–
x2 = 0.7612	7.67 mPa·s	6.86 mPa·s	6.01 mPa·s	5.33 mPa·s	–
x2 = 0.8524	4.94 mPa·s	4.45 mPa·s	3.99 mPa·s	3.58 mPa·s	–
x2 = 0.9005	3.6 mPa·s	3.27 mPa·s	2.95 mPa·s	2.69 mPa·s	–
x2 = 0.9321	2.96 mPa·s	2.88 mPa·s	2.81 mPa·s	2.09 mPa·s	–
x2 = 0.9743	2.3 mPa·s	2.11 mPa·s	1.93 mPa·s	1.79 mPa·s	–

O + CCCCCCCCCCCCCCCC[n+]1ccccc1.O=C([O-])c1ccccc1O
101 kPa, x2 = 0
Conditions	electrical conductivity [S/m]
293.15 K	0.000135
298.15 K	0.000158
303.15 K	0.000178
308.15 K	0.000197
313.15 K	0.000246

CCCC[n+]1ccn(C)c1.F[B-](F)(F)F + O + NCCO
100 kPa, x1 = 0.2723, x2 = 0.2627
Conditions	viscosity [mPa·s]
303 K	16.89
308 K	13.81
318 K	9.78
323 K	8.34

O + C[C@@H](O)[C@H](N)C(=O)O + CCCCCCCCCCCCCCCC[n+]1ccccc1.[Cl-]
Conditions	electrical conductivity [S/m]
308.15 K, 101 kPa, x2 = 0, x3 = 0	6.7e-05

CCCC[n+]1ccn(C)c1.F[B-](F)(F)F + OCCOCCOCCOCCO
Conditions	viscosity [mPa·s]
298.15 K, 101 kPa, x2 = 0	94.4
